The star is where a group is joined. AMC = Cc1cc(=O)oc2cc(N*)ccc12; Tos = Cc1ccc(S(=O)(=O)*)cc1

One data set has as its system human lung tryptase. Put plainly: Screening of tryptase substrates: responsiveness of fluorescent MCA substrates to tryptase. It is filed as biochemical. The settings on record: relative value with the sensitivity of ^iBoc-Ala-Ala-Arg-MCA defined as 100; 100 μM substrate, 50 mM Tris-HCl pH 8.0, ex 365 nm / em 470 nm. On the procedure: In addition to reference to past documents as described above, ^iBoc-Y-X-Arg-MCA in which Gly, Ala, Abu, Val, Pro, Phe or hydrophilic Lys having distinctive bulkiness was introduced to positions P2 and P3 was synthesized as listed in Table 1 by a peptide library approach, and activity measurement was performed. Abu (2-aminobutyric acid) is a non-protein amino acid, but was added as an optimum peptide sequence search tool.
The activity measurement was performed by the following method.
(1) A stock of a substrate solution was provided as a 2.0 mM solution in DMSO. (2) The stock of the substrate solution was diluted 20-fold with 50 mM Tris-HCl (pH 8.0) to prepare a 100 μM solution. 100 μL thereof was added to a polypropylene microtube, further 2 μL of a commercially available tryptase solution (manufactured by Cappel Laboratories, Inc.) was added thereto, and the tube was lightly vortexed for mixing. Immediately thereafter, change in fluorescence intensity at 470 nm was measured at an excitation wavelength of 365 nm using an enzyme activity measurement apparatus (manufactured by Peptide Support Ltd., prototype).
The molecule `Cc1cc(=O)oc2cc(NC(=O)C(CCCNC(=N)N)NC(=O)OCC(C)C)ccc12` (stereo not drawn) [^iBoc-Arg-MCA] came in with a Tryptase activity of 0. On the same count and under the same terms, for “Tos-Gly-Pro-Arg-{AMC} [reference compound]” the value was 25. Same read-out and setting: for ^iBoc-Abu-Abu-Arg-MCA the value was 69; for ^iBoc-Abu-Ala-Arg-MCA, 109.

Regarding ^iBoc-Ala-Abu-Arg-MCA, the Tryptase activity amounted to 80. On the same count and under the same terms, then ^iBoc-Ala-Ala-Arg-MCA, with 100. Still for that read-out and setting: for ^iBoc-Ala-Lys-Arg-MCA the value was 11. On the same count and under the same terms, for ^iBoc-Ala-Phe-Arg-MCA the value was 1; for ^iBoc-Ala-Val-Arg-MCA, 50; for ^iBoc-Gly-Gly-Arg-MCA, 0. On to ^iBoc-Gly-Pro-Arg-MCA, for which the Tryptase activity was found to be 9. The same measure, in the same setting: for ^iBoc-Lys-Ala-Arg-MCA the value was 167.

^iBoc-Lys-Gly-Arg-MCA registered a Tryptase activity of 75.

Consider ^iBoc-Lys-Pro-Arg-MCA, for which the Tryptase activity is recorded as 175. Still for that read-out and setting: for ^iBoc-Phe-Ala-Arg-MCA the value was 62; for ^iBoc-Phe-Gly-Arg-MCA, 5; for ^iBoc-Phe-Ser-Arg-MCA, 11. Still for that read-out and setting: for ^iBoc-Val-Ala-Arg-MCA the value was 53. ^iBoc-Val-Pro-Arg-MCA returned a Tryptase activity of 20.

The data set is the same for the next values; noted with them: screening of Table 1.
As for ^iBoc-Abu-Ala-Arg-MCA, the “tryptase responsiveness compared with ^iBoc-Ala-Ala-Arg-MCA (in words)” value is recorded as “higher tryptase responsiveness than that of ^iBoc-Ala-Ala-Arg-MCA”. Consider ^iBoc-Lys-Ala-Arg-MCA, for which the “tryptase responsiveness compared with ^iBoc-Ala-Ala-Arg-MCA (in words)” value is given as “higher tryptase responsiveness than that of ^iBoc-Ala-Ala-Arg-MCA”.

Turning to ^iBoc-Lys-Pro-Arg-MCA, the “tryptase responsiveness compared with ^iBoc-Ala-Ala-Arg-MCA (in words)” value is “tryptase responsiveness slightly less than two times higher than that of ^iBoc-Ala-Ala-Arg-MCA”.

Another data set relates to Tryptase in Serum. As to the kind of experiment: Human serum enzyme activity with Suc-Ala-Ala-Arg-MCA-linked poly(L-lysine) substrate after addition of inhibitors. It is filed as biochemical. The settings on record: human serum; Suc-Ala-Ala-Arg-MCA-linked poly(L-lysine) substrate. The method, then: Suc-Ala-Ala-Arg-MCA-linked poly(L-lysine) prepared in Example 2 was used to test whether to be able to specifically measure tryptase activity in serum.
(1) 20.0 mg of Suc-Ala-Ala-Arg-MCA-linked poly(L-lysine) was dissolved in 50 mL of 50 mM Tris-HCl (pH 8.0). (2) 2 μL of commercially available human serum (manufactured by BioWest) was mixed with 2 μL of PBS(−) (pH 7.4) (control) or 2 μL of 10 μM nafamostat (tryptase inhibitor, manufactured by Tokyo Chemical Industry Co., Ltd.) or 2 μL of 10 U/mL hirudin (thrombin inhibitor, manufactured by Sigma-Aldrich Co., LLC). After a lapse of 10 minutes at room temperature, each mixed solution was added to 100 μL of the solution prepared in the step (1). Immediately thereafter, enzyme activity was measured.
Take `N=C(N)c1ccc2cc(OC(=O)c3ccc(N=C(N)N)cc3)ccc2c1` [nafamostat]: the “inhibition of enzyme activity in serum detected with the macromolecular substrate (in words)” value is “completely inhibited”.

The data set is the same for the next values; noted with them: relative value with serum + PBS(-) defined as 100; human serum preincubated 10 min with 2 μL of 10 μM nafamostat or 10 U/mL hirudin; substrate Suc-Ala-Ala-Arg-MCA-linked poly(L-lysine).
Turning to `N=C(N)c1ccc2cc(OC(=O)c3ccc(N=C(N)N)cc3)ccc2c1` [nafamostat], the Enzyme activity is listed as 0. Same read-out and setting: for hirudin the value was 83.

(Values after US20220364141A1, “Tryptase Activity Measurement Substrate” (National University Corporation Tokyo University of …, priority 2019, published 2022).)
